# Entries after “also recorded” stand apart in the source; their conditions may differ.
# Key:
# HERK1‐CD = assay: HERK1-CD kinase activity (autophosphorylation); format: biochemical, Arabidopsis thaliana; settings: 5 μM
# THE1‐CD = assay: THE1-CD kinase activity (autophosphorylation); format: biochemical, Arabidopsis thaliana; settings: 5 μM
# Ralstonia solanacearum [1] = format: in vivo; settings: Arabidopsis seedlings pretreated with 5 μM, 4 days after inoculation
# Meloidogyne incognita [2] = assay: Rice root-knot nematode disease, preventive root treatment; format: in vivo; settings: roots pretreated twice with 3 mL of 5 μM, 800 pre-J2s
# Ralstonia solanacearum [3] = format: in vivo, tobacco; settings: 5 μM irrigated twice two days after inoculation
# Meloidogyne incognita [4] = assay: Established rice root-knot nematode disease (inhibitor applied after inoculation); format: in vivo; settings: irrigated three days after inoculation
# tobacco roots = assay: RNA-seq of tobacco roots (DEGs, GO and KEGG classification and enrichment); format: in vivo
# FRK1 = settings: 5 μM for 24 h, confocal microscopy
# PER5 = settings: 5 μM for 24 h, confocal microscopy
# [5] = KEGG ko00040 Pentose and glucuronate interconversions
# [6] = KEGG ko00052 Galactose metabolism
# [7] = KEGG ko00062 Fatty acid elongation
# [8] = KEGG ko00071 Fatty acid degradation
# [9] = KEGG ko00073 Cutin, suberine and wax biosynthesis
# [10] = KEGG ko00100 Steroid biosynthesis
# [11] = KEGG ko00250 Alanine, aspartate and glutamate metabolism
# [12] = KEGG ko00270 Cysteine and methionine metabolism
# [13] = KEGG ko00290 Valine, leucine and isoleucine biosynthesis
# [14] = KEGG ko00330 Arginine and proline metabolism
# [15] = KEGG ko00350 Tyrosine metabolism
# [16] = KEGG ko00360 Phenylalanine metabolism
# [17] = KEGG ko00410 beta-Alanine metabolism
# [18] = KEGG ko00430 Taurine and hypotaurine metabolism
# [19] = KEGG ko00460 Cyanoamino acid metabolism
# [20] = KEGG ko00480 Glutathione metabolism
# [21] = KEGG ko00500 Starch and sucrose metabolism
# [22] = KEGG ko00511 Other glycan degradation
# [23] = KEGG ko00520 Amino sugar and nucleotide sugar metabolism
# [24] = KEGG ko00531 Glycosaminoglycan degradation
# [25] = KEGG ko00561 Glycerolipid metabolism
# [26] = KEGG ko00564 Glycerophospholipid metabolism
# [27] = KEGG ko00590 Arachidonic acid metabolism
# [28] = KEGG ko00591 Linoleic acid metabolism
# [29] = KEGG ko00592 alpha-Linolenic acid metabolism
# [30] = KEGG ko00603 Glycosphingolipid biosynthesis - globo series
# [31] = KEGG ko00604 Glycosphingolipid biosynthesis - ganglio series
# [32] = KEGG ko00650 Butanoate metabolism
# [33] = KEGG ko00730 Thiamine metabolism
# [34] = KEGG ko00760 Nicotinate and nicotinamide metabolism
# [35] = KEGG ko00770 Pantothenate and CoA biosynthesis
# [36] = KEGG ko00904 Diterpenoid biosynthesis
# [37] = KEGG ko00905 Brassinosteroid biosynthesis
# [38] = KEGG ko00906 Carotenoid biosynthesis
# [39] = KEGG ko00908 Zeatin biosynthesis
# [40] = KEGG ko00909 Sesquiterpenoid and triterpenoid biosynthesis
# [41] = KEGG ko00910 Nitrogen metabolism
# [42] = KEGG ko00940 Phenylpropanoid biosynthesis
# [43] = KEGG ko00941 Flavonoid biosynthesis
# [44] = KEGG ko00950 Isoquinoline alkaloid biosynthesis
# [45] = KEGG ko00960 Tropane, piperidine and pyridine alkaloid biosynthesis
# [46] = KEGG ko00980 Metabolism of xenobiotics by cytochrome P450
# [47] = KEGG ko00982 Drug metabolism - cytochrome P450
# [48] = KEGG ko01040 Biosynthesis of unsaturated fatty acids
# [49] = KEGG ko03320 PPAR signaling pathway
# [50] = KEGG ko04010 MAPK signaling pathway
# [51] = KEGG ko04011 MAPK signaling pathway - yeast
# [52] = KEGG ko04020 Calcium signaling pathway
# [53] = KEGG ko04022 cGMP-PKG signaling pathway
# [54] = KEGG ko04075 Plant hormone signal transduction
# [55] = KEGG ko04140 Regulation of autophagy
# [56] = KEGG ko04211 Longevity regulating pathway
# [57] = KEGG ko04212 Longevity regulating pathway - worm
# [58] = KEGG ko04370 VEGF signaling pathway
# [59] = KEGG ko04380 Osteoclast differentiation
# [60] = KEGG ko04614 Renin-angiotensin system
# [61] = KEGG ko04626 Plant-pathogen interaction
# [62] = KEGG ko04650 Natural killer cell mediated cytotoxicity
# [63] = KEGG ko04660 T cell receptor signaling pathway
# [64] = KEGG ko04662 B cell receptor signaling pathway
# [65] = KEGG ko04712 Circadian rhythm - plant
# [66] = KEGG ko04720 Long-term potentiation
# [67] = KEGG ko04723 Retrograde endocannabinoid signaling
# [68] = KEGG ko04724 Glutamatergic synapse
# [69] = KEGG ko04810 Regulation of actin cytoskeleton
# [70] = KEGG ko04920 Adipocytokine signaling pathway
# [71] = KEGG ko04921 Oxytocin signaling pathway
# [72] = KEGG ko04922 Glucagon signaling pathway
# [73] = KEGG ko04974 Protein digestion and absorption
# [74] = KEGG ko04975 Fat digestion and absorption
# [75] = tobacco roots, 5 μM irrigated twice, coregulated genes, vs DMSO
smiles,measurement,setting,value
O=C(O)c1cc(N(Cc2ccccc2O)Cc2cc(O)ccc2O)ccc1O [Lavendustin A],Inhibition rate of HERK1-CD kinase activity,HERK1‐CD,lower than 55%
same,Inhibition rate of THE1-CD kinase activity,THE1‐CD,lower than 55%
same,Cotyledon bleaching caused by R. solanacearum,Ralstonia solanacearum [1],effectively prevented the cotyledon bleaching
same,Control of rice root-knot nematode disease,Meloidogyne incognita [2],better preventive effects than staurosporine; also recorded: alleviated soil‐borne diseases
same,Effect on established tobacco bacterial wilt,Ralstonia solanacearum [3],could not completely prevent the occurrence of the diseases or cure already diseased plants
same,Effect on established rice root-knot nematode disease,Meloidogyne incognita [4],could not completely prevent the occurrence of the diseases or cure already diseased plants
same,Enrichment_score,tobacco roots; [5],1.762
same,ListHits,tobacco roots; [5],11
same,Enrichment_score,tobacco roots; [6],3.118
same,ListHits,tobacco roots; [6],9
same,Enrichment_score,tobacco roots; [7],4.058
same,ListHits,tobacco roots; [7],8
same,Enrichment_score,tobacco roots; [8],0.9908
same,ListHits,tobacco roots; [8],2
same,Enrichment_score,tobacco roots; [9],6.683
same,ListHits,tobacco roots; [9],16
same,Enrichment_score,tobacco roots; [10],3.5933
same,ListHits,tobacco roots; [10],7
same,Enrichment_score,tobacco roots; [11],2.602
same,ListHits,tobacco roots; [11],8
same,Enrichment_score,tobacco roots; [12],1.358
same,ListHits,tobacco roots; [12],8
same,Enrichment_score,tobacco roots; [13],1.495
same,ListHits,tobacco roots; [13],2
same,Enrichment_score,tobacco roots; [14],2.996
same,ListHits,tobacco roots; [14],9
same,Enrichment_score,tobacco roots; [15],1.721
same,ListHits,tobacco roots; [15],4
same,Enrichment_score,tobacco roots; [16],3.551
same,ListHits,tobacco roots; [16],8
same,Enrichment_score,tobacco roots; [17],1.826
same,ListHits,tobacco roots; [17],6
same,Enrichment_score,tobacco roots; [18],1.704
same,ListHits,tobacco roots; [18],1
same,Enrichment_score,tobacco roots; [19],2.209
same,ListHits,tobacco roots; [19],7
same,Enrichment_score,tobacco roots; [20],1.785
same,ListHits,tobacco roots; [20],8
same,Enrichment_score,tobacco roots; [21],2.489
same,ListHits,tobacco roots; [21],34
same,Enrichment_score,tobacco roots; [22],1.253
same,ListHits,tobacco roots; [22],1
same,Enrichment_score,tobacco roots; [23],1.791
same,ListHits,tobacco roots; [23],14
same,Enrichment_score,tobacco roots; [24],1.152
same,ListHits,tobacco roots; [24],1
same,Enrichment_score,tobacco roots; [25],2.272
same,ListHits,tobacco roots; [25],8
same,Enrichment_score,tobacco roots; [26],1.826
same,ListHits,tobacco roots; [26],9
same,Enrichment_score,tobacco roots; [27],1.2911
same,ListHits,tobacco roots; [27],1
same,Enrichment_score,tobacco roots; [28],6.087
same,ListHits,tobacco roots; [28],6
same,Enrichment_score,tobacco roots; [29],4.111
same,ListHits,tobacco roots; [29],11
same,Enrichment_score,tobacco roots; [30],4.485
same,ListHits,tobacco roots; [30],2
same,Enrichment_score,tobacco roots; [31],4.734
same,ListHits,tobacco roots; [31],1
same,Enrichment_score,tobacco roots; [32],1.671
same,ListHits,tobacco roots; [32],2
same,Enrichment_score,tobacco roots; [33],1.522
same,ListHits,tobacco roots; [33],1
same,Enrichment_score,tobacco roots; [34],4.438
same,ListHits,tobacco roots; [34],5
same,Enrichment_score,tobacco roots; [35],1.397
same,ListHits,tobacco roots; [35],2
same,Enrichment_score,tobacco roots; [36],1.0025
same,ListHits,tobacco roots; [36],2
same,Enrichment_score,tobacco roots; [37],2.84
same,ListHits,tobacco roots; [37],2
same,Enrichment_score,tobacco roots; [38],1.079
same,ListHits,tobacco roots; [38],2
same,Enrichment_score,tobacco roots; [39],1.973
same,ListHits,tobacco roots; [39],5
same,Enrichment_score,tobacco roots; [40],1.739
same,ListHits,tobacco roots; [40],2
same,Enrichment_score,tobacco roots; [41],6.015
same,ListHits,tobacco roots; [41],12
same,Enrichment_score,tobacco roots; [42],5.314
same,ListHits,tobacco roots; [42],58
same,Enrichment_score,tobacco roots; [43],1.173
same,ListHits,tobacco roots; [43],3
same,Enrichment_score,tobacco roots; [44],2.794
same,ListHits,tobacco roots; [44],4
same,Enrichment_score,tobacco roots; [45],4.058
same,ListHits,tobacco roots; [45],6
same,Enrichment_score,tobacco roots; [46],2.166
same,ListHits,tobacco roots; [46],6
same,Enrichment_score,tobacco roots; [47],2.749
same,ListHits,tobacco roots; [47],8
same,Enrichment_score,tobacco roots; [48],1.121
same,ListHits,tobacco roots; [48],2
same,Enrichment_score,tobacco roots; KEGG ko02010 ABC transporters,2.282
same,ListHits,tobacco roots; KEGG ko02010 ABC transporters,3
same,Enrichment_score,tobacco roots; [49],2.72
same,ListHits,tobacco roots; [49],3
same,Enrichment_score,tobacco roots; [50],1.195
same,ListHits,tobacco roots; [50],3
same,Enrichment_score,tobacco roots; [51],1.3634
same,ListHits,tobacco roots; [51],4
same,Enrichment_score,tobacco roots; [52],1.535
same,ListHits,tobacco roots; [52],4
same,Enrichment_score,tobacco roots; [53],1.209
same,ListHits,tobacco roots; [53],4
same,Enrichment_score,tobacco roots; [54],1.797
same,ListHits,tobacco roots; [54],28
same,Enrichment_score,tobacco roots; [55],1.598
same,ListHits,tobacco roots; [55],3
same,Enrichment_score,tobacco roots; KEGG ko04146 Peroxisome,1.462
same,ListHits,tobacco roots; KEGG ko04146 Peroxisome,7
same,Enrichment_score,tobacco roots; [56],1.677
same,ListHits,tobacco roots; [56],5
same,Enrichment_score,tobacco roots; [57],1.175
same,ListHits,tobacco roots; [57],4
same,Enrichment_score,tobacco roots; KEGG ko04360 Axon guidance,2.905
same,ListHits,tobacco roots; KEGG ko04360 Axon guidance,6
same,Enrichment_score,tobacco roots; [58],2.242
same,ListHits,tobacco roots; [58],3
same,Enrichment_score,tobacco roots; [59],2.242
same,ListHits,tobacco roots; [59],3
same,Enrichment_score,tobacco roots; [60],9.13
same,ListHits,tobacco roots; [60],3
same,Enrichment_score,tobacco roots; [61],1.285
same,ListHits,tobacco roots; [61],13
same,Enrichment_score,tobacco roots; [62],2.412
same,ListHits,tobacco roots; [62],3
same,Enrichment_score,tobacco roots; [63],2.905
same,ListHits,tobacco roots; [63],3
same,Enrichment_score,tobacco roots; [64],2.204
same,ListHits,tobacco roots; [64],3
same,Enrichment_score,tobacco roots; [65],1.266
same,ListHits,tobacco roots; [65],3
same,Enrichment_score,tobacco roots; [66],1.66
same,ListHits,tobacco roots; [66],3
same,Enrichment_score,tobacco roots; [67],1.014
same,ListHits,tobacco roots; [67],1
same,Enrichment_score,tobacco roots; [68],1.982
same,ListHits,tobacco roots; [68],4
same,Enrichment_score,tobacco roots; KEGG ko04727 GABAergic synapse,1.8
same,ListHits,tobacco roots; KEGG ko04727 GABAergic synapse,3
same,Enrichment_score,tobacco roots; [69],1.244
same,ListHits,tobacco roots; [69],4
same,Enrichment_score,tobacco roots; [70],3.4085
same,ListHits,tobacco roots; [70],6
same,Enrichment_score,tobacco roots; [71],1.746
same,ListHits,tobacco roots; [71],5
same,Enrichment_score,tobacco roots; [72],1.2104
same,ListHits,tobacco roots; [72],5
same,Enrichment_score,tobacco roots; KEGG ko04924 Renin secretion,2.282
same,ListHits,tobacco roots; KEGG ko04924 Renin secretion,3
same,Enrichment_score,tobacco roots; [73],11.3617
same,ListHits,tobacco roots; [73],4
same,Enrichment_score,tobacco roots; [74],3.551
same,ListHits,tobacco roots; [74],1
same,Enrichment_score,tobacco roots; KEGG ko04976 Bile secretion,2.324
same,ListHits,tobacco roots; KEGG ko04976 Bile secretion,3
same,Expression levels of growth-related genes in tobacco roots,"tobacco roots; RNA-seq, GO growth, vs DMSO",differentially elevated the expression levels of most growth‐related genes
same,"Expression levels of RBOHs, MYB44, TGA2, WRKY19, EFR, FLS2, PR1 and PDF1.4 in tobacco roots","tobacco roots; RNA-seq, vs DMSO",significantly increased the expression levels
same,Antioxidant genes (GO antioxidant activity) up-regulated,tobacco roots; [75],60 of 61
same,Immune genes (GO immune system process) up-regulated,tobacco roots; [75],70 of 82
same,Environmental adaptation-related genes (KEGG) up-regulated,"tobacco roots; tobacco roots, coregulated genes, vs DMSO",22 of 29
same,Expression of FRK1 in roots,FRK1,did not affect the expression levels
same,Expression of PER5 in roots,PER5,did not affect the expression levels

# — paper PMC9829398 (Plant Biotechnology Journal, 2022)
